Assay results reported in US6423689B1, “Peptidyl calcium channel blockers” (Warner-Lambert Company, priority 1997, dated 2002).

Target: T1, N-type Ca2+ channels in IMR-32 cells (Homo sapiens, UniProt Q00975)
T1 construct: host or cells: IMR-32 cells, differentiated with dibutyryl cAMP and bromodeoxyuridine
Test: Inhibition of N-type calcium flux in IMR-32 cells (Indo-1 fluorescence, nitrendipine present)
Type: cell-based
Conditions: for IC50: IMR-32 cells, 5 μM nitrendipine, K+ depolarization; for inhibition at 1 µM / inhibition at 10 µM: IMR-32
Outline: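 Differentiated IMR-32 cells (7–13 days) were loaded with 5 μM Indo-1 AM, preincubated with compound for 10 min at 30° C, and depolarized with KCl/CaCl2 stimulation solution, with 5 μM nitrendipine blocking L-channels. Peak-minus-basal 400/490 nm emission ratio was plotted against drug concentration, and IC50 came from four-parameter logistic fits.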

T1 sequence (Q00975 whole entry): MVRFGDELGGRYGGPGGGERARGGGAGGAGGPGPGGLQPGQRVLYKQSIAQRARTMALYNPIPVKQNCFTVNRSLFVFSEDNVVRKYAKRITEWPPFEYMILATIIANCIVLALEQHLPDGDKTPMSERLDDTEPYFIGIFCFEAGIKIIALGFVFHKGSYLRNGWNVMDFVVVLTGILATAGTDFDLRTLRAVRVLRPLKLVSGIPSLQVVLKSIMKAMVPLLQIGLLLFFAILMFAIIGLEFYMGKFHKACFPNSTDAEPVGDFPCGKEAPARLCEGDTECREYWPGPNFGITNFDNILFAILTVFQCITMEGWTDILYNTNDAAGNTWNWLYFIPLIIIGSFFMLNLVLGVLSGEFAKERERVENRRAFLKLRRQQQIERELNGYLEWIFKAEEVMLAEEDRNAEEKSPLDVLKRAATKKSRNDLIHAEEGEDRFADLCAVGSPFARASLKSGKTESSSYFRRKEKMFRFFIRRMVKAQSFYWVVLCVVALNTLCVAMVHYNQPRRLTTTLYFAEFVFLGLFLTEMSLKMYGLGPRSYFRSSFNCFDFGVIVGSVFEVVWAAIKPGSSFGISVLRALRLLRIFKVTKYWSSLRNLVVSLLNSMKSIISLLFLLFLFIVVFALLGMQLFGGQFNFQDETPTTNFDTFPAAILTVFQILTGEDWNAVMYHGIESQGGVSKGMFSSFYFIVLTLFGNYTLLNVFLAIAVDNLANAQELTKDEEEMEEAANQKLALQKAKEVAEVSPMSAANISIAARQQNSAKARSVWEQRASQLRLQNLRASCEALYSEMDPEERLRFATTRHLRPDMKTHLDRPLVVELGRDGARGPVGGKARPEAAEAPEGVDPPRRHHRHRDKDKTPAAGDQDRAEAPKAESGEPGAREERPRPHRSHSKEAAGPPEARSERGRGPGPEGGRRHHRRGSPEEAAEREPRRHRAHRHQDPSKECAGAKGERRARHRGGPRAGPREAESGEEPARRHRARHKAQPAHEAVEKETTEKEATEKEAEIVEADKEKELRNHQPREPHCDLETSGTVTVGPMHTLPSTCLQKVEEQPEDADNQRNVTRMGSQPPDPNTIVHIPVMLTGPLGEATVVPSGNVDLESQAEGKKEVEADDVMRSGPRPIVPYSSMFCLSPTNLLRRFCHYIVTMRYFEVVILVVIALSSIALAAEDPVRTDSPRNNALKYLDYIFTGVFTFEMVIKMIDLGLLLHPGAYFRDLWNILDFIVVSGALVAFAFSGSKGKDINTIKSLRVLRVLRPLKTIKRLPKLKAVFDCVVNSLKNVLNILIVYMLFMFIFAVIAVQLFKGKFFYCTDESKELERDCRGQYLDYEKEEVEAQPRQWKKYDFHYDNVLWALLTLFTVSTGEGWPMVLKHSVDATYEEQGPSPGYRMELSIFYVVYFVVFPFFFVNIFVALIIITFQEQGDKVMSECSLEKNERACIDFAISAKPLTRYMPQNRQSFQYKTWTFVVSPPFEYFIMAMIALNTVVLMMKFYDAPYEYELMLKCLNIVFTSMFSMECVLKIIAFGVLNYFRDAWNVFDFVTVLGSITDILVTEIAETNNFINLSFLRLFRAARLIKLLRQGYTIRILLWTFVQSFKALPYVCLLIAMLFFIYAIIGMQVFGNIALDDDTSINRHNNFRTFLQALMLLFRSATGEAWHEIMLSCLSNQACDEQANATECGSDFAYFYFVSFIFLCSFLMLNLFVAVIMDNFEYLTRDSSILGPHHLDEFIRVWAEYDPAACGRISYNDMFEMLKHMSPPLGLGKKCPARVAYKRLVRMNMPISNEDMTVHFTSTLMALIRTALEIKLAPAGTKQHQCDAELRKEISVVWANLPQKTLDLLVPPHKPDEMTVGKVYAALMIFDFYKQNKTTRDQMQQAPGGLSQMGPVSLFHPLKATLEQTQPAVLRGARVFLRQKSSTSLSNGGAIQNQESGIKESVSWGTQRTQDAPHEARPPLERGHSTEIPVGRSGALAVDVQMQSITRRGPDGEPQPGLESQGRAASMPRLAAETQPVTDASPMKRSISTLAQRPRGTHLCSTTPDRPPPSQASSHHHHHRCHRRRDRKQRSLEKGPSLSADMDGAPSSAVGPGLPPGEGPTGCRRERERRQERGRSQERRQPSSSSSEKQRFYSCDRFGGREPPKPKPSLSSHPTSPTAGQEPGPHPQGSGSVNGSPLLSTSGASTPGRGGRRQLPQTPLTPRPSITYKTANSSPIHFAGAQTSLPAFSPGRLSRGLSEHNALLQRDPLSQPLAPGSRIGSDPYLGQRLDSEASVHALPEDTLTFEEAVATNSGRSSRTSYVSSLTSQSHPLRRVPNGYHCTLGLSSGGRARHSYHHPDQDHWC
T1 sequence (P54289 25-956 partner limits assumed): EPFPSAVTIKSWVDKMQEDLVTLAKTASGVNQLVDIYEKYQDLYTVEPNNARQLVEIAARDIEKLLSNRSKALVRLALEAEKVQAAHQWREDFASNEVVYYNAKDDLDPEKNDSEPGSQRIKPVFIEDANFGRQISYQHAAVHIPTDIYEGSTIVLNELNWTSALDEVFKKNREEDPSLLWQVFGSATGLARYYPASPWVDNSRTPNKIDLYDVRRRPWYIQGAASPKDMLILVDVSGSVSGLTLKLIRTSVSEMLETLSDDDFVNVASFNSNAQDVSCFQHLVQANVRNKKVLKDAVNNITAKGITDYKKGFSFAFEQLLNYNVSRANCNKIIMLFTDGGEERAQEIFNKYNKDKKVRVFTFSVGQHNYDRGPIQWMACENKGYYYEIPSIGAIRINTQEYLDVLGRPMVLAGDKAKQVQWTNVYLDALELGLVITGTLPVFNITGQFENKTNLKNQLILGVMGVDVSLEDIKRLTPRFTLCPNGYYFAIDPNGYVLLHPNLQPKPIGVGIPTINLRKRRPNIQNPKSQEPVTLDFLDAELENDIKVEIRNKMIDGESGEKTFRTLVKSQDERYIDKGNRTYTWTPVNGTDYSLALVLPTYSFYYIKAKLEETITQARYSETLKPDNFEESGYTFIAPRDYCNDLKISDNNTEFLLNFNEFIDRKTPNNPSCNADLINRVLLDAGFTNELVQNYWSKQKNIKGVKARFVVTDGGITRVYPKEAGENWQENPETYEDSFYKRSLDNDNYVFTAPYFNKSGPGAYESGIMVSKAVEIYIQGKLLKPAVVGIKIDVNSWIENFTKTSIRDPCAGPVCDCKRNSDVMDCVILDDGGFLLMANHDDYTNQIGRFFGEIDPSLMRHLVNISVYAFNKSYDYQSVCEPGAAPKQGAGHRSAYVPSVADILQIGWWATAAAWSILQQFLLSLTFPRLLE
T1 sequence (P54289 957-1103 partner limits assumed): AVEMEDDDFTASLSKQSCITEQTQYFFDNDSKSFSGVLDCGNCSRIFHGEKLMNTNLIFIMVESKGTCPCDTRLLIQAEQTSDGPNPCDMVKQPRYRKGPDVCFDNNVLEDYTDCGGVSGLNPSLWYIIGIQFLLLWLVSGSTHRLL
T1 sequence (P54284 whole entry partner): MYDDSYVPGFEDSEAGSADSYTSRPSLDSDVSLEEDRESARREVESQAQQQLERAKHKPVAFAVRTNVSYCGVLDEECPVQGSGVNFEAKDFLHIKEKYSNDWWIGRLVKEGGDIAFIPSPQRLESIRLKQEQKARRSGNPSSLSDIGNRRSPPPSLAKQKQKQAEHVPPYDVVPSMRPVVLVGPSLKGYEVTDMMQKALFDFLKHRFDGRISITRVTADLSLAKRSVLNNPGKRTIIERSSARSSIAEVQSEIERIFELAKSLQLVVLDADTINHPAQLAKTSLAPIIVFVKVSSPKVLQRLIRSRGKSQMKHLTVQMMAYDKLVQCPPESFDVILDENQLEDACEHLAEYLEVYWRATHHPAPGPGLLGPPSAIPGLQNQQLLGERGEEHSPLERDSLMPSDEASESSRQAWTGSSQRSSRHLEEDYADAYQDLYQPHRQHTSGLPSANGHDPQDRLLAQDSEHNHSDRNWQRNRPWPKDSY

| SMILES | Inhibition of Calcium Flux in IMR-32 Cells % Inhibition at 1 μM [%] | IC50 [µM] | also measured |
| --- | --- | --- | --- |
| CC(C)C[C@H](NC(=S)Nc1ccc(Br)cc1)C(=O)N[C@@H](Cc1ccc(OCc2ccccc2)cc1)C(=O)OC(C)(C)C (relative stereo) [Example 45, [S-(R*,R*)]-3-(4-Benzyloxy-phenyl)-2-{2-[3-(4-bromophenyl)-thioureido]-4-methyl-pentanoyl-amino}-propionic acid, tert-butyl ester] | 29 |  | Inhibition of Calcium Flux in IMR-32 Cells % Inhibition at 10 μM: 68% |
| COc1ccc(NC(=O)N[C@@H](CC(C)C)C(=O)N[C@@H](Cc2ccc(OCc3ccccc3)cc2)C(=O)OC(C)(C)C)cc1 (relative stereo) [Example 68, [S-(R*,R*)]-3-(4-Benzyloxy-phenyl)-2-{2-[3-(4-methoxy-phenyl)-ureido]-4-methyl-pentanoylamino}-propionic acid tert-butyl ester] | 31 |  |  |
| CC(C)C[C@H](NC(=O)Nc1ccc(C(F)(F)F)cc1)C(=O)N[C@@H](Cc1ccc(OCc2ccccc2)cc1)C(=O)OC(C)(C)C (relative stereo) [Example 70, [S-(R*,R*)]-3-(4-Benzyloxy-phenyl)-2-{4-methyl-2-[3-(4-trifluoromethyl-phenyl)-ureido]-pentanoylamino}-propionic acid tert-butyl ester] | 25 |  |  |
| CC(C)CC(NC(=O)N1CCCCCC1)C(=O)NC(Cc1ccc(OCc2ccccc2)cc1)C(=O)NCC1CCN(Cc2ccccc2)C1 (stereo not shown) [Example 250, Azepane-1-carboxylic acid (1-{2-(4-benzyloxy-phenyl)-1-[(1-benzyl-pyrrolidin-3-ylmethyl)-carbamoyl]-ethylcarbamoyl}-3-methyl-butyl)-amide] |  | 0.27 |  |
| CC(C)C[C@H](NS(=O)(=O)c1cccc2nsnc12)C(=O)C[C@H](Cc1ccc(OCc2ccccc2)cc1)C(=O)OC(C)(C)C (relative stereo) [Example 102, [S-(R*,R*)]-5-(Benzo[1,2,5]thiadiazole-4-sulfonylamino)-2-(4-benzyloxybenzyl)-7-methyl-4-oxo-octanoic acid tert-butyl ester] |  |  | Inhibition of Calcium Flux in IMR-32 Cells % Inhibition at 10 μM: 75% |
| CC(C)C[C@H](NC(=O)N1CCCCCC1)C(=O)N[C@@H](Cc1ccc(OCc2ccccc2)cc1)C(=O)NCCc1c[nH]cn1 [Example 172, [S-(R*,R*)]-Azepane-1-carboxylic acid (1-{2-(4-benzyloxy-phenyl)-1-[2-(1H-imidazol-4-yl)ethylcarbamoyl]-ethylcarbamoyl}-3-methyl-butyl)-amide] |  | 2.3 |  |
| CC(C)C[C@H](NC(=S)Nc1ccc(C(C)C)cc1)C(=O)N[C@@H](Cc1ccc(OCc2ccccc2)cc1)C(=O)OC(C)(C)C (relative stereo) [Example 43, [S-(R*,R*)]-3-(4-Benzyloxy-phenyl)-2-{2-[3-(4-isopropyl-phenyl)-thioureido]-4-methyl-pentanoylamino}-propionic acid, tert-butyl ester] | 17 |  | Inhibition of Calcium Flux in IMR-32 Cells % Inhibition at 10 μM: 38% |
| Cc1cc(NC(=O)[C@H](Cc2ccc(OCc3ccccc3)cc2)NC(=O)[C@H](CC(C)C)NC(=O)N2CCCCCC2)c(C)cc1O [Example 267, [S-(R*,R*)]-Azepane-1-carboxylic acid {1-[2-(4-benzyloxy-phenyl)-1-(4-hydroxy-2,5-dimethyl-phenylcarbamoyl)-ethylcarbamoyl]-3-methyl-butyl}-amide] |  | 4.4 |  |
| CC(=O)N[C@H]1CCN(C(=O)[C@H](Cc2ccc(OCc3ccccc3)cc2)NC(=O)[C@H](CC(C)C)NC(=O)N2CCCCCC2)C1 [Example 244] | 24 |  | Inhibition of Calcium Flux in IMR-32 Cells % Inhibition at 10 μM: 73% |
| CC(C)CC(NC(=O)N1CCCCCC1)C(=O)NC(Cc1ccc(OCc2ccccc2)cc1)C(=O)NC(C)CN(C)C (stereo not shown) [Example 230, Azepane-1-carboxylic acid {1-[2-(4-benzyloxy-phenyl)-1-(2-dimethylamino-1-methyl-ethylcarbamoyl)-ethylcarbamoyl]-3-methyl-butyl}-amide] |  |  | inhibition at 1 µM: 34%; inhibition at 10 µM: 81% |
| CC(=O)c1ccc(NC(=O)[C@H](Cc2ccc(OCc3ccccc3)cc2)NC(=O)[C@H](CC(C)C)NC(=O)N2CCCCCC2)cc1 [Example 212, [S-(R*,R*)]-Azepane-1-carboxylic acid {1-[1-(4-acetyl-phenylcarbamoyl)-2-(4-benzyloxy-phenyl)-ethylcarbamoyl]-3-methyl-butyl}-amide] |  | 1.9 | inhibition at 1 µM: 34%; inhibition at 10 µM: 66% |
| CC(C)CC(NC(=O)N1CCCCCC1)C(=O)NC(Cc1ccc(OCc2ccccc2)cc1)C(=O)NC(C)CNCC(C)N (stereo not shown) [Example 239, Azepane-1-carboxylic acid {1-[1-[2-(2-amino-propylamino)-1-methyl-ethylcarbamoyl]-2-(4-benzyloxy-phenyl)-ethylcarbamoyl]-3-methyl-butyl}-amide] |  |  | inhibition at 1 µM: 22%; inhibition at 10 µM: 23% |
| CC(C)C[C@H](NC(=O)Nc1ccccc1Cl)C(=O)N[C@@H](Cc1ccc(OCc2ccccc2)cc1)C(=O)OC(C)(C)C (relative stereo) [Example 73, [S-(R*,R*)]-3-(4-Benzyloxy-phenyl)-2-{2-[3-(2-chloro-phenyl)-ureido]-4-methylpentanoylamino}-propionic acid tert-butyl ester] | 60 |  |  |
| CC(C)C[C@H](NC(=O)N1CCCCCC1)C(=O)N[C@@H](Cc1ccc(OCc2ccccc2)cc1)C(=O)NCCN(C)C [Example 175, [S-(R*,R*)]-Azepane-1-carboxylic acid {1-[2-(4-benzyloxy-phenyl)-1-(2-dimethylamino-ethylcarbamoyl)-ethylcarbamoyl]-3-methyl-butyl}-amide] |  | 2.7 |  |
| CC(C)C[C@H](NC(=O)N1CCCCCC1)C(=O)N[C@@H](Cc1ccc(OCc2ccccc2)cc1)C(=O)NC1CCCCCC1 [Example 208, [S-(R*,R*)]-Azepane-1-carboxylic acid {1-[2-(4-benzyloxy-phenyl)-1-cycloheptylcarbamoyl-ethylcarbamoyl]-3-methyl-butyl}-amide] |  | 1.8 | inhibition at 1 µM: 38%; inhibition at 10 µM: 81% |
| CC(C)C[C@H](NC(=O)N1CCCCCC1)C(=O)N[C@@H](Cc1ccc(OCc2ccccc2)cc1)C(=O)N1CCC[C@H]1CN1CCCC1 [Example 179, Azepane-1-carboxylic acid {(S)-1-[(S)-1-(4-benzyloxy-benzyl)-2-oxo-2-[(S)-2-pyrrolidin-1-ylmethyl-pyrrolidin-1-yl]-ethylcarbamoyl]-3-methyl-butyl}-amide] |  | 1.4 |  |
| CC(C)C[C@H](NC(=O)N1CCCCCC1)C(=O)N[C@@H](Cc1ccc(OCc2ccccc2)cc1)C(=O)N1CCN(CCO)CC1 [Example 202, [S-(R*,R*)]-Azepane-1-carboxylic acid (1-{1-(4-benzyloxy-benzyl)-2-[4-(2-hydroxy-ethyl)-piperazin-1-yl]-2-oxo-ethylcarbamoyl}-3-methyl-butyl)-amide] |  | 2.8 | inhibition at 1 µM: 25%; inhibition at 10 µM: 79% |
| Cc1cc(C)cc(NC(=O)N[C@@H](CC(C)C)C(=O)N[C@@H](Cc2ccc(OCc3ccccc3)cc2)C(=O)OC(C)(C)C)c1 (relative stereo) [Example 72, [S-(R*,R*)]-3-(4-Benzyloxy-phenyl)-2-{2-[3-(3,5-dimethyl-phenyl)-ureido]-4-methyl-pentanoylamino}-propionic acid tert-butyl ester] | 31 |  |  |
| CC(C)(C)NC(=O)[C@H](Cc1ccc(OCc2ccccc2)cc1)NC(=O)[C@H](Cc1ccc(O)cc1)NC(=O)N1CCCCCC1 [Example 160, [S-(R*,R*)]-Azepane-1-carboxylic acid [1-[2-(4-benzyloxy-phenyl)-1-tert-butylcarbamoyl-ethylcarbamoyl]-2-(4-hydroxy-phenyl)-ethyl]-amide] |  | 2.5 |  |
| CC(C)C[C@H](NC(=O)Nc1cccc2ccccc12)C(=O)N[C@@H](Cc1ccc(OCc2ccccc2)cc1)C(=O)OC(C)(C)C (relative stereo) [Example 79, [S-(R*,R*)]-3-(4-Benzyloxy-phenyl)-2-[4-methyl-2-(3-naphthalen-1-yl-ureido)-pentanoylamino]-propionic acid tert-butyl ester] | 23 |  |  |
| CC(C)C[C@H](NC(=O)N1CCCCCC1)C(=O)N[C@@H](Cc1ccc(OCc2ccccc2)cc1)C(=O)Nc1cccc(C(F)(F)F)c1 [Example 214, [S-(R*,R*)]-Azepane-1-carboxylic acid {1-[2-(4-benzyloxy-phenyl)-1-(3-trifluoromethyl-phenylcarbamoyl)-ethylcarbamoyl]-3-methyl-butyl}-amide] |  | 1.4 | inhibition at 1 µM: 42%; inhibition at 10 µM: 51% |
| CC(C)C[C@H](NC(=O)Nc1ccc(Cl)c(C(F)(F)F)c1)C(=O)N[C@@H](Cc1ccc(OCc2ccccc2)cc1)C(=O)OC(C)(C)C (relative stereo) [Example 78, [S-(R*,R*)]-3-(4-Benzyloxy-phenyl)-2-{2-[3-(4-chloro-3-trifluoromethyl-phenyl)-ureido]-4-methyl-pentanoylamino}-propionic acid tert-butyl ester] | 24 |  |  |
| CC(C)C[C@H](NC(=S)NC12CC3CC(CC(C3)C1)C2)C(=O)N[C@@H](Cc1ccc(OCc2ccccc2)cc1)C(=O)OC(C)(C)C (relative stereo) [Example 46, [S-(R*,R*)]-3-(4-Benzyloxy-phenyl)-2-{2-[3-(1-adamantyl)-thioureido]-4-methylpentanoylamino}-propionic acid, tert-butyl ester] | 29 |  | Inhibition of Calcium Flux in IMR-32 Cells % Inhibition at 10 μM: 49% |
